Assay results taken from patent US7326538B2, “Binding proteins as biosensors” (Becton Dickinson and Company, priority 2002, dated 2008).

Assays:
[1] = SPR glucose detection on immobilized GGBP sensor surfaces (BIACORE); assay type: binding; settings: for SPR Signal, Buffer: running buffer injection; for glucose detection by SPR using thiol-coupled mutants (FIG. 8): 0.1 mM and 1 mM glucose, thiol-coupled surfaces
Procedure: Proteins were immobilized onto a carboxymethyldextran (CM5) sensor surface (BIACORE) by thiol coupling using standard thiol coupling chemistry with a flow rate of 5 μl/min in 10 mM HEPES pH 7.4, 150 mM NaCl, 0.05% BIACORE Surfactant P20 (BIAcore) (HBS-P) running buffer. The sensor surface was activated with a 2 minute pulse of […] (EDC/NHS) followed by a 4 min pulse of 80 mM 2-(2-pyridinyldithio) ethaneamine (PDEA), 0.1 M sodium borate pH 8.5, E149C GGBP (1.8 mg/ml) was injected at a 1:50 dilution in 10 mM sodium acetate pH 4.5 for various times. Carbonic anhydrase 11 (5 mg/ml) was injected at 1:10 dilution in 10 mM sodium acetate pH 4.5 for 20 minutes. G74C GGBP (2.6 mg/ml) was injected at 1:50 dilution in 10 mM sodium acetate pH 4.5 for 12 minutes. A213C GGBP (0.6 mg/ml) was injected at 1:20 dilution in 10 mM sodium acetate pH 4.5 for 2 4 minutes. A 4 minute pulse of 50 mM cysteine, 1 M NaCl, 0.1 M sodium formate pH 4.3 was used to quench the reaction and remove non-specifically bound protein from the surface. Following immobilization, the protocol DESORB (0.5% SDS, 50 mM glycine pH 9.5) was run to remove protein aggregates from the system. Surfaces of 3000 RU (E149C GGBP), 4500 RU (carbonic anydrase), 2000 RU (A213C GGBP), and 4000 RU (G74C GGBP) were used for experiments.
Proteins were immobilized onto a Carboxymethyldextran (CM5) sensor surface (BIAcore) by amine coupling using standard amine coupling chemistry with a flow rate of 5 μl/min in HBS-P running buffer. The surface was activated with a 7 minute pulse of EDC/NHS. Proteins (WT GGBP, 2 mg/ml; E149C GGBP, 1.8 mg/ml) were injected at a 1:50 dilution in 10 mM sodium acetate pH 4.5 for 20 minutes. A pulse of 1 M ethanolamine pH 8.0 was injected to quench the reaction and remove nonspecifically bound protein. Surfaces of 4800 RU for E149C and 2400 RU for wild type GGBP were used for experiments.
Thiol coupling of E149C GGBP on C1 surfaces was carried out as follows. E149C GGBP was immobilized on a carboxymethyl (C1) chip using standard thiol coupling chemistry with a flow rate of 5 μl/min in HBS-P running buffer. The C1 surface was activated with a 4 min pulse of EDC/NHS followed by a 4 min pulse of 80 mM PDEA of 0.1 M sodium borate pH 8.5. E149C GGBP (1.8 mg/ml) was injected at a 1:2 dilution in 10 mM sodium acetate pH 4.5 for 50 minutes at a flow rate of 1 μl/min. A 7 minute pulse of 50 mM cysteine, 1M NaCl, 0.1 M sodium formate pH 4.3 was used to quench the reaction and remove non-specifically bound protein from the surface. A surface of 9000 RU was used for experiments.
Amine coupling of E149C GGBP on C1 surfaces. E149C GGBP was immobilized on a C1 chip using standard amine coupling chemistry with a flow rate of 5 μl/min in HBS-P running buffer. The surface was activated with a 7 minute pulse of EDC/NHS. E149C GGBP (1.8 mg/ml) was injected at a 1:2 dilution in 1 0 MM sodium acetate pH 4.5 for 50 minutes at a flow rate of 1 μl/min. A pulse of 1 M ethanolamine pH 8.0 was injected to quench the reaction and remove nonspecifically bound protein.
All glucose injections were performed at 25° C. in the appropriate running buffer for the specific experiment. Glucose injections were 10 μl at a flow rate of 10 μl/min (1 minute contact time). Injections of different glucose concentrations were repeated three times and alternated between the protein and blank surfaces. The protein surface was regenerated by washing of the flow channel with running buffer followed by a running buffer injection. Sensorgrams were either blank surface subtracted or were double referenced by first subtracting the glucose injection over a blank surface from the corresponding glucose injection on the protein surface. A buffer injection over the blank surface was then subtracted from a buffer injection over the protein surface. The final sensorgram was obtained by subtracting the normalized buffer injection from the normalized glucose injection. […]

[2] = SPR response of thiol coupled E149C GGBP to a panel of sugars; assay type: binding; settings: sugars at 100 μM, 3000 RU thiol-coupled surface
Procedure: All glucose injections were performed at 25° C. in the appropriate running buffer for the specific experiment. Glucose injections were 10 μl at a flow rate of 10 μl/min (1 minute contact time). Injections of different glucose concentrations were repeated three times and alternated between the protein and blank surfaces. The protein surface was regenerated by washing of the flow channel with running buffer followed by a running buffer injection. Sensorgrams were either blank surface subtracted or were double referenced by first subtracting the glucose injection over a blank surface from the corresponding glucose injection on the protein surface. A buffer injection over the blank surface was then subtracted from a buffer injection over the protein surface. The final sensorgram was obtained by subtracting the normalized buffer injection from the normalized glucose injection.
FIG. 2 depicts the specificity of E149C mutated GGBP to bind glucose preferentially. The indicated sugars were injected at a concentration of 100 μM on a 3000 RU thiol-coupled E149C surface. Double referenced sensorgrams were averaged during the time frame corresponding between 10 and 50 seconds during the injection. Each injection was done in triplicate.

[3] = amine coupling, CM5 chip, 100 μM glucose
[4] = thiol coupling, CM5 chip, 100 μM glucose, blank subtracted or double referenced

## E149C GGBP H6: E. coli GGBP with cysteine substituted for glutamic acid at position 149, C-terminal six-histidine tag
[1]; 100 μM glucose, 2000 RU amine-coupled surface
  glucose detection on C1 surface (FIG. 7): does not result in glucose binding
[1]; 100 μM glucose, 9000 RU thiol-coupled protein surface
  glucose detection on C1 surface (FIG. 6): Glucose detection is evident
[1]; 100 µM glucose, one minute injection
  signal upon glucose binding, thiol-coupling in comparison to amino coupling or buffer only (FIG. 1): significantly enhanced signal
[1]; amine coupling, C1 chip, 1 mM glucose
  SPR Signal at Saturating Amounts of Glucose: −4.9 ± 5.3/ RU
[1]; [3]
  SPR Signal at Saturating Amounts of Glucose: 2.1 ± 5.5/ RU
[1]; amine coupling, C1 chip
  SPR Signal, Buffer: 0.4 ± 3.1 RU
[1]; amine coupling, CM5 chip
  SPR Signal, Buffer: 1.4 ± 3.1 RU
[1]; thiol coupling, C1 chip
  SPR Signal, Buffer: 0.8 ± 1.5 RU
[1]; thiol coupling, CM5 chip
  SPR Signal, Buffer: −0.5 ± 4.3 RU
[1]; thiol coupling, CM5 chip, denatured surface (neg control)
  SPR Signal, Buffer: −1.4 ± 2.2 RU
[1]; thiol coupling, CM5 chip, refolded protein surface
  SPR Signal, Buffer: −3.7 ± 1.5 RU
[1]; thiol coupling, C1 chip, 100 μM glucose
  SPR Signal at Saturating Amounts of Glucose: 10.2 ± 2.8/ RU
[1]; [4]
  SPR Signal at Saturating Amounts of Glucose: 17.7 ± 0.5/ RU
[1]; thiol coupling, CM5 chip, denatured surface (neg control), 100 μM glucose
  SPR Signal at Saturating Amounts of Glucose: 0 ± 4.1/ RU
[1]; thiol coupling, CM5 chip, refolded protein surface, 100 μM glucose
  SPR Signal at Saturating Amounts of Glucose: 11.4 ± 1.0/ RU
[1]; thiol-coupled surface, 1 M guanidine HCl overnight, HBS-EP injections
  glucose signal after denaturation (FIG. 3): did not result in glucose signals
[1]; thiol-coupled surface, HBS-P and 1.5 mM CaCl2, continuous flow overnight
  glucose signal after renaturation (FIG. 3): Glucose signals were restored
[2]
  specificity to bind glucose preferentially over other sugars (FIG. 2): glucose binds more readily

## K137C GGBP H6: GGBP with cysteine substituted for lysine at position 137, histidine tag
[1]; thiol coupling, CM5 chip
  SPR Signal, Buffer: 4.8 ± 3.2 RU
[1]; [4]
  SPR Signal at Saturating Amounts of Glucose: 9.5 ± 4.2/ RU

## WT GGBP H6: wild type E. coli Galactose/Glucose Binding Protein with histidine tag, non-thiol negative control [reference compound]
[1]; [3]
  SPR Signal at Saturating Amounts of Glucose: 5.9 ± 2.3/ RU
[1]; amine coupling, CM5 chip
  SPR Signal, Buffer: 2.9 ± 1.5 RU

## G74C GGBP H6: GGBP with cysteine substituted for glycine at position 74, histidine tag
[1]
  glucose detection by SPR using thiol-coupled mutants (FIG. 8): signal-enhanced glucose detection
[1]; thiol coupling, CM5 chip
  SPR Signal, Buffer: 2.7 ± 3.6 RU
[1]; [4]
  SPR Signal at Saturating Amounts of Glucose: 22.3 ± 0.2/ RU

## A213C GGBP H6: GGBP with cysteine substituted for alanine at position 213, histidine tag
[1]
  glucose detection by SPR using thiol-coupled mutants (FIG. 8): signal-enhanced glucose detection
[1]; thiol coupling, CM5 chip
  SPR Signal, Buffer: −0.5 ± 0.4 RU
[1]; thiol coupling, CM5 chip, 1 mM glucose
  SPR Signal at Saturating Amounts of Glucose: 119 ± 0.4/ RU
